Earlier results in US10028917B2, “Beclomethasone dipropionate compositions in modified-release gastro-resistant microspheres and process for obtaining them” (SOFAR SPA, priority 2010, dated 2018).

Details: relative to hydrocortisone

## CCC(=O)OCC(=O)[C@@]1(OC(=O)CC)[C@@H](C)C[C@H]2[C@@H]3CCC4=CC(=O)C=C[C@]4(C)[C@@]3(Cl)[C@@H](O)C[C@@]21C [BDP, Beclomethasone dipropionate]
  times more powerful than hydrocortisone: 500 times
